In patent publication US11712434B2, “Compound having anti-cancer effect, and preparation method therefor and use thereof” (3D MEDICINES (BEIJING) CO., LTD., priority 2016, dated 2023):

How the values were obtained:
Test in all cases: Cell proliferation assay (Alamar Blue)
Format in all cases: cell-based
DLD1 = details: Homo sapiens, DLD-1, 144 h; DLD1 tumor cell line; 6 days culture
Outline: (§1)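 Fluorescence readout (Ex 560 nm, Em 590 nm) after 1-4 h AlamarBlue incubation following 6-day compound exposure. Nine-point 3.16-fold dilution series starting at 100 or 30 μM depending on solubility, duplicate wells. Inhibition normalised to 0% and 100% inhibition controls; IC50 from dose-response fit.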

KM12 = details: Homo sapiens, 144 h; KM12 tumor cell line; 6 days culture
Outline: as §1

TE-6 = details: Homo sapiens, 144 h; TE-6 tumor cell line; 6 days culture
Outline: as §1

NCI-H526 = details: Homo sapiens, 144 h; NCI-H526 tumor cell line; 6 days culture
Outline: as §1

NCI-H1703 = details: Homo sapiens, 144 h; NCI-H1703 (lung cancer cells); 6 days culture
Outline: as §1

LNCAP-clone-FGC = details: Homo sapiens, 144 h; LNCAP-clone-FGC tumor cell line; 6 days culture
Outline: as §1

JHH6 = details: 144 h; JHH6 liver cancer cell line; 6 days culture
Outline: as §1

SNU182 = details: Homo sapiens, SNU-182, 144 h; SNU182 liver cancer cell line; 6 days culture
Outline: as §1

TE-15 = details: Homo sapiens, 144 h; TE-15 tumor cell line; 6 days culture
Outline: as §1

HuTu80 = details: Homo sapiens, 144 h; HuTu80 tumor cell line; 6 days culture
Outline: as §1

HLE = details: Homo sapiens, 144 h; HLE liver cancer cell line; 6 days culture
Outline: as §1

HUH6 = details: Homo sapiens, HuH-6, 144 h; HUH6 liver cancer cell line; 6 days culture
Outline: as §1

SNU423 = details: Homo sapiens, SNU-423, 144 h; SNU423 liver cancer cell line; 6 days culture
Outline: as §1

MFM-223 = details: Homo sapiens, 144 h; MFM-223 tumor cell line; 6 days culture
Outline: as §1

SNU387 = details: Homo sapiens, SNU-387, 144 h; SNU387 liver cancer cell line; 6 days culture
Outline: as §1

K562 = details: Homo sapiens, 144 h; K562 tumor cell line; 6 days culture
Outline: as §1

SNU761 = details: 144 h; SNU761 liver cancer cell line; 6 days culture
Outline: as §1

LC-2-ad = details: Homo sapiens, 144 h; LC-2-ad tumor cell line; 6 days culture
Outline: as §1

SNU886 = details: SNU-886, 144 h; SNU886 liver cancer cell line; 6 days culture
Outline: as §1

T.T = details: Homo sapiens, TT, 144 h; T.T tumor cell line; 6 days culture
Outline: as §1

HUH7 = details: Homo sapiens, Huh-7, 144 h; HUH7 liver cancer cell line; 6 days culture
Outline: as §1

HT1080 = details: Homo sapiens, HT-1080, 144 h; HT1080 tumor cell line; 6 days culture
Outline: as §1

Alexander cells = details: 144 h; Alexander cells liver cancer cell line; 6 days culture
Outline: as §1

HCCLM3 = details: Homo sapiens, 144 h; HCCLM3 tumor cell line; 6 days culture
Outline: as §1

Li-7 = details: 144 h; Li-7 liver cancer cell line; 6 days culture
Outline: as §1

SNU354 = details: Homo sapiens, SNU-354, 144 h; SNU354 liver cancer cell line; 6 days culture
Outline: as §1

NCI-H661 = details: Homo sapiens, 144 h; NCI-H661 tumor cell line; 6 days culture
Outline: as §1

Compound | IC50 (DLD1) [µM] | IC50 (KM12) [µM] | IC50 (TE-6) [µM] | IC50 (NCI-H526) [µM] | IC50 (NCI-H1703) [µM] | IC50 (LNCAP-clone-FGC) [µM] | IC50 (JHH6) [µM] | IC50 (SNU182) [µM] | IC50 (TE-15) [µM] | IC50 (HuTu80) [µM] | IC50 (HLE) [µM] | IC50 (HUH6) [µM] | IC50 (SNU423) [µM] | IC50 (MFM-223) [µM] | IC50 (SNU387) [µM] | IC50 (K562) [µM] | IC50 (SNU761) [µM] | IC50 (LC-2-ad) [µM] | IC50 (SNU886) [µM] | IC50 (T.T) [µM] | further results
Cc1ccc(F)c(NC(=O)Nc2ccc(-c3cccc4[nH]nc(NC(=O)C[C@H](N)C(=O)N[C@@H](CCC(=O)O)C(=O)O)c34)cc2)c1 [Compound 1] | 18.5 | 3.71 | 10.5 | 7.45 | 0.03 | 15.6 | 6.57 | 30.9 | 2.94 | 1.98 | 2.84 | 52.9 | 25.4 | 3.59 | 22.3 | 17.2 | 12.6 | 3.52 | 7.24 | 9.24 | IC50 (HUH7): 2.89 µM; IC50 (HT1080): 10.4 µM; IC50 (Alexander cells): 4.01 µM; IC50 (HCCLM3): 8.24 µM; IC50 (Li-7): 7.29 µM; IC50 (SNU354): 3.59 µM; IC50 (NCI-H661): 20.2 µM
Cc1ccc(F)c(NC(=O)Nc2ccc(-c3cccc4[nH]nc(NC(=O)C[C@H](N)C(=O)N[C@@H](CCC(=O)N[C@@H](CCC(=O)N[C@@H](CCC(=O)N[C@@H](CCC(=O)O)C(=O)O)C(=O)O)C(=O)O)C(=O)O)c34)cc2)c1 [Compound 2] | 29.2 | 5.48 | 27.6 | 11.3 | 0.07 | 26.5 | 10.9 | 46.2 | 7.29 | 4.26 | 6.47 | 79 | 33.2 | 6.93 | 47.9 | 29.5 | 19.5 | 6.37 | 16.9 | 16.9 | IC50 (HUH7): 6.33 µM; IC50 (HT1080): 24.9 µM; IC50 (Alexander cells): 7.11 µM; IC50 (HCCLM3): 12 µM; IC50 (Li-7): 19.5 µM; IC50 (SNU354): 8.62 µM; IC50 (NCI-H661): 36.8 µM
